One assay deals with T1, IKKε (Homo sapiens, UniProt Q14164).
T1 sequence (Q14164 1-716): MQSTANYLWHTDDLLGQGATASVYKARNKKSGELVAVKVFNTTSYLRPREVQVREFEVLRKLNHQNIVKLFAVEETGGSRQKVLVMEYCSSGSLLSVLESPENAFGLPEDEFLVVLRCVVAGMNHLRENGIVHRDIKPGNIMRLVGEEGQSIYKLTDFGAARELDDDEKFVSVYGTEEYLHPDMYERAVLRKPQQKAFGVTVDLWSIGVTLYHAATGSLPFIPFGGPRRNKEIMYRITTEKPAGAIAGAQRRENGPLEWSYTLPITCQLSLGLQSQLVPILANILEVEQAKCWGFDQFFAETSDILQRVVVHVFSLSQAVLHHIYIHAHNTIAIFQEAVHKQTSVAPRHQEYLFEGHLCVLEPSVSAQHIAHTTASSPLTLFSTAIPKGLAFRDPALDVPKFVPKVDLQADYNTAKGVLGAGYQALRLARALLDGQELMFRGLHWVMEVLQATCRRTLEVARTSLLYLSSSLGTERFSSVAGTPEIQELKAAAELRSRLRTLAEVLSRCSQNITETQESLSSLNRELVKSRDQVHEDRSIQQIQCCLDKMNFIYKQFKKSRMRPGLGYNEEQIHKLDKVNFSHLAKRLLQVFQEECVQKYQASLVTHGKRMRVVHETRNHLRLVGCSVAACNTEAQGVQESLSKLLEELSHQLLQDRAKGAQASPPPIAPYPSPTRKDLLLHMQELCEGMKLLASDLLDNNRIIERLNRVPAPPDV
Briefly: IKKε biochemical assay. The settings on record: 10 point 1:4 dose response, 30 uM top concentration, 90 min at 25° C., LabChip EZ Reader II; read-out: IKKε_IC50. The essentials:
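Mobility-shift LabChip read-out followed a 90 min, 25° C. reaction of IKKε with substrate and test compound, with DMSO held at 1% final. Reactions were ended with stop buffer. Wells with 10 uM final staurosporine defined complete inhibition, and DMSO-only wells the uninhibited level.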

The target in the next assay is T2, TBK1 (Homo sapiens, UniProt Q9UHD2).
T2 sequence (Q9UHD2 1-729): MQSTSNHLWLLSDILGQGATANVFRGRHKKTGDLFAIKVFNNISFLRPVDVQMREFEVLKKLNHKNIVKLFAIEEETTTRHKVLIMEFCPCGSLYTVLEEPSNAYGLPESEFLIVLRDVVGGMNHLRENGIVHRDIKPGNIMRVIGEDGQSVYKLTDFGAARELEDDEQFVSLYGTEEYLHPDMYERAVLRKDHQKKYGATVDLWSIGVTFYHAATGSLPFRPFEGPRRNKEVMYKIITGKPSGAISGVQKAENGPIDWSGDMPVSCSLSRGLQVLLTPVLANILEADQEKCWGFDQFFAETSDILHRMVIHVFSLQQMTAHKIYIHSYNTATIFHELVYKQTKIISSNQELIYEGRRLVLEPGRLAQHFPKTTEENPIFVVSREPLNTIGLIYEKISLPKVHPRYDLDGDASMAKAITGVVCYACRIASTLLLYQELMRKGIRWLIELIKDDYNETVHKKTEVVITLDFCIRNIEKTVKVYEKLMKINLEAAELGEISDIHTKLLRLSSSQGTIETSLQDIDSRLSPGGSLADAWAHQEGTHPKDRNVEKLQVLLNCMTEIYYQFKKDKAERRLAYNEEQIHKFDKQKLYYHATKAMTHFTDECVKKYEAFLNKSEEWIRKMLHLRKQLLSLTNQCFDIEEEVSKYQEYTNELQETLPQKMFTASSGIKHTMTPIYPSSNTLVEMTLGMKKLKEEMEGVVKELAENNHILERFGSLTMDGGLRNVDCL
Briefly: TBK biochemical assay. The settings on record: 10 point 1:4 dose response, 30 uM top concentration, 90 min at 25° C., LabChip EZ Reader II; read-out: TBK1_IC50. In outline:
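Read-out was a Caliper LabChip mobility-shift assay, run after a 90-min, 25 °C reaction of TBK1 with substrate and compounds, quenched with stop buffer. Control wells received staurosporine at 10 uM final.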

As to `COc1nc(Nc2nccc(-c3cc(C#N)c(OC4CCN(C(=O)[C@H](C)O)CC4(F)F)cn3)n2)ccc1N1CCN(C2COC2)CC1` (stereo partly drawn) [Example 303, 5-([33-difluoro-1-[(2S)-2-hydroxypropanoyl]piperidin-4-yl]oxy)-2-[2-([6-methoxy-5-[4-(oxetan-3-yl)piperazin-1-yl]pyridin-2-yl]amino)pyrimidin-4-yl]pyridine-4-carbonitrile], the IC50 at IKKε was 1000 to 5000 nM; on TBK1, 100 to 1000 nM.
Regarding `COc1nc(Nc2nccc(-c3ccc(NC4CCOCC4)c(C#N)n3)n2)ccc1C(=O)N(C)C` [Example 64, 6-[(4-[6-cyano-5-[(oxan-4-yl)amino]pyridin-2-yl]pyrimidin-2-yl)amino]-2-methoxy-N,N-dimethylpyridine-3-carboxamide], the IC50 at IKKε and at TBK1 was less than 100 nM each time.
On to `CCOc1cc(Nc2nccc(-c3ccc(OC4CCN(C(=O)[C@H](C)O)CC4(F)F)c(C#N)c3)n2)ccc1N1CCN(C2COC2)CC1` (stereo partly drawn) [Example 229, 2-([3,3-difluoro-1-[(2S)-2-hydroxypropanoyl]piperidin-4-yl]oxy)-5-[2-([3-ethoxy-4-[4-(oxetan-3-yl)piperazin-1-yl]phenyl]amino)pyrimidin-4-yl]benzonitrile], for which the IC50 on IKKε and on TBK1 was less than 100 nM in each case.
With `N#Cc1cc(-c2ccnc(Nc3cccc(C4CCN(C5COC5)CC4)c3)n2)ccc1OC1CCN(C(=O)[C@@H](O)CO)CC1(F)F` (stereo partly drawn) [Example 276, 2-[1-((S)-2,3-Dihydroxy-propionyl)-3,3-difluoro-piperidin-4-yloxy]-5-{2-[3-(l-oxetan-3-yl-piperidin-4-yl)-phenylamino]-pyrimidin-4-yl}-benzonitrile], the IC50 on IKKε and at TBK1 was less than 100 nM each time.
Turning to `C[C@H](O)C(=O)N1CC(COc2ccc(-c3ccnc(Nc4ccc(N5CCN(C6COC6)CC5)cc4)n3)cc2C#N)C1` [Example 277, 2-([1-[(2S)-2-hydroxypropanoyl]azetidin-3-yl]methoxy)-5-[2-([4-[4-(oxetan-3-yl)piperazin-1-yl]phenyl]amino)pyrimidin-4-yl]benzonitrile], the IC50 on IKKε and on TBK1 was less than 100 nM throughout.
Regarding `Cc1nc(C(=O)N2CCC(Oc3ccc(-c4ccnc(Nc5ccc(N6CCN(C)CC6)cc5)n4)cc3C#N)CC2)n[nH]1` [Example 203, 2-[[1-(5-methyl-1H-1,2,4-triazole-3-carbonyl)piperidin-4-yl]oxy]-5-(2-[[4-(4-methylpiperazin-1-yl)phenyl]amino]pyrimidin-4-yl)benzonitrile], the IC50 on IKKε and at TBK1 was less than 100 nM in each case.
Turning to `COc1nc(Nc2nccc(-c3cc(C#N)c(OC4CCN(C(=O)[C@H](C)O)CC4(F)F)cc3C)n2)ccc1N1CCN(C2COC2)CC1` (stereo partly drawn) [Example 307, 2-([3,3-difluoro-1-[(2S)-2-hydroxypropanoyl]piperidin-4-yl]oxy)-5-[2-([6-methoxy-5-[4-(oxetan-3-yl)piperazin-1-yl]pyridin-2-yl]amino)pyrimidin-4-yl]-4-methylbenzonitrile], the IC50 at IKKε and at TBK1 was less than 100 nM each time.
As to `COc1nc(Nc2nccc(-c3ccc(OC4CCN(C(=O)[C@H](C)CO)CC4(F)F)c(C#N)c3)n2)ccc1N1CCN(C2COC2)CC1` (stereo partly drawn) [Example 257, 2-[3,3-Difluoro-1-((R)-3-hydroxy-2-methyl-propionyl)-piperidin-4-yloxy]-5-{2-[6-methoxy-5-(4-oxetan-3-yl-piperazin-1-yl)-pyridin-2-ylamino]-pyrimidin-4-yl}-benzonitrile], the IC50 on IKKε and on TBK1 was less than 100 nM each time.
For `C[C@@H](O)C(=O)N1CC(Oc2ccc(-c3ccnc(Nc4ccc(N5CCN(C6COC6)CC5)cc4)n3)cc2C#N)C1` [Example 173, 2-([1-[(2R)-2-hydroxypropanoyl]azetidin-3-yl]oxy)-5-[2-([4-[4-(oxetan-3-yl)piperazin-1-yl]phenyl]amino)pyrimidin-4-yl]benzonitrile], the IC50 on IKKε and on TBK1 was 100 to 1000 nM each time.
In the case of `COc1cc(Nc2nccc(-c3ccc(OC4CCOCC4)c(C#N)n3)n2)cnc1C(=O)N(C)C` [Example 25, 5-([4-[6-cyano-5-(oxan-4-yloxy)pyridin-2-yl]pyrimidin-2-yl]amino)-3-methoxy-N,N-dimethylpyridine-2-carboxamide], the IC50 at IKKε and on TBK1 was less than 100 nM in each case.
Regarding `COc1nc(Nc2nccc(-c3ccc(OC4CCN(C(=O)C(C)(C)O)CC4(F)F)c(C#N)c3)n2)ccc1N1CCN(C)C[C@H]1C` (stereo partly drawn) [Example 114, 2-[3,3-Difluoro-1-(2-hydroxy-2-methyl-propionyl)-piperidin-4-yloxy]-5-{2-[5-((R)-2,4-dimethyl-piperazin-1-yl)-6-methoxy-pyridin-2-ylamino]-pyrimidin-4-yl}-benzonitrile], the IC50 on IKKε and at TBK1 was less than 100 nM throughout.
For `COc1ccc(Nc2nccc(-c3ccc(OC4CCN(C(=O)[C@H](C)O)CC4(F)F)c(C#N)c3)n2)nc1OC` (stereo partly drawn) [Example 211, 2-[3,3-Difluoro-1-((S)-2-hydroxy-propionyl)-piperidin-4-yloxy]-5-[2-(5,6-dimethoxy-pyridin-2-ylamino)-pyrimidin-4-yl]-benzonitrile], the IC50 on IKKε and at TBK1 was less than 100 nM throughout.
For `COc1nc(Nc2nccc(-c3ccc(O[C@@H]4CCN(C(=O)[C@H](C)O)C[C@H]4F)c(C#N)c3)n2)ccc1N1CCN(C2COC2)CC1` [Example 202, 2-[(3R,4R)-3-Fluoro-1-((S)-2-hydroxy-propionyl)-piperidin-4-yloxy]-5-{2-[6-methoxy-5-(4-oxetan-3-yl-piperazin-1-yl)-pyridin-2-ylamino]-pyrimidin-4-yl}-benzonitrile], the IC50 at IKKε and at TBK1 was less than 100 nM throughout.
For `COc1nc(Nc2nccc(-c3ccc(OC4CCN(C(=O)[C@@H]5CCC(=O)N5)CC4(F)F)c(C#N)c3)n2)ccc1N1CCN(C2COC2)CC1` (stereo partly drawn) [Example 256, 2,2-[3,3-Difluoro-1-((S)-5-oxo-pyrrolidine-2-carbonyl)-piperidin-4-yloxy]-5-{2-[6-methoxy-5-(4-oxetan-3-yl-piperazin-1-yl)-pyridin-2-ylamino]-pyrimidin-4-yl}-benzonitrile], the IC50 at IKKε and on TBK1 was less than 100 nM throughout.
In the case of `N#Cc1cc(-c2ccnc(Nc3ccc(N4CCN(C5COC5)CC4)cc3)n2)ccc1OC1COC1` [Example 159, 5-[2-([4-[4-(oxetan-3-yl)piperazin-1-yl]phenyl]amino)pyrimidin-4-yl]-2-(oxetan-3-yloxy)benzonitrile], the IC50 at IKKε and on TBK1 was less than 100 nM in each case.
For the compound `COc1nc(Nc2nccc(-c3ccc(O[C@H]4CCN(C(=O)[C@H](C)O)CC4(F)F)c(C#N)c3)n2)ccc1N1CCN(C2COC2)CC1` [Example 120, 2-([3,3-difluoro-1-[(2S)-2-hydroxypropanoyl]piperidin-4-yl]oxy)-5-[2-([6-methoxy-5-[4-(oxetan-3-yl)piperazin-1-yl]pyridin-2-yl]amino)pyrimidin-4-yl]benzonitrile], the IC50 on IKKε and on TBK1 was less than 100 nM each time.
Turning to `C[C@H](O)C(=O)N1CCC(Oc2ccc(-c3ccnc(Nc4cccc(C5CCN(C6COC6)CC5)c4)n3)cc2C#N)C(F)(F)C1` (stereo partly drawn) [Example 224, 2-[3,3-Difluoro-1-((S)-2-hydroxy-propionyl)-piperidin-4-yloxy]-5-{2-[3-(1-oxetan-3-yl-piperidin-4-yl)-phenylamino]-pyrimidin-4-yl}-benzonitrile], the IC50 on IKKε and on TBK1 was less than 100 nM throughout.

Source of the values: patent publication US20230019491A1, “PYRIMIDINE TBK/IKKe INHIBITOR COMPOUNDS AND USES THEREOF” (Merck Patent GmbH, priority 2017, published 2023).
